The results in this text go back to patent US6406917B1, “Methods and compositions for the use of apurinic/apyrimidinic endonucleases” (Advanced Research And Technology Institute, priority 1996, dated 2002).

Bounds are passed on as bounds.

Type in all cases: cell-based, human
In assay [1] the test system is HL-60-bcl-2 cells. Nature of the assay: Western blot of APE protein expression after differentiation induction. As to conditions: 10^-5 M RA, 1.25% DMSO or 100 nM PMA, compared to parental HL-60. The procedure: (§1) FIG. 7A and FIG. 7B: Expression of APE in HL-60-bcl-2 cells. FIG. 7A, HL-60-bcl-2 cells at 0, 2, 4, and 6 days after treatment with 10^−5 M RA or 1.25% DMSO, Western blot (top) probed with an affinity purified polyclonal rabbit anti-APE antibody. Northern blots (middle and bottom) probed for the 1.6 Kb APE and GAPDH transcripts. FIG. 7B, HL-60-bcl-2 cells treated with 100 nM PMA.
(§2) To ascertain whether APE expression was associated with differentiation or programmed cell death, the inventor blocked apoptosis by over-expression of the proto-oncogene bcl-2 using HL-60 cells transduced with the retroviral construct LbcI2SN (Park et al, 1994). […] The apparent decrease in APE transcript expression after 6 days exposure to RA or DMSO results from loading differences as evidenced by the GAPDH Northern control blot (FIG. 7). […] Thus constitutive expression of bcl-2 inhibits the decrease in APE expression as well as programmed cell death normally observed with granulocytic or monocytic/macrophage induced differentiation of HL-60 cells.

Assay [2] relates to HL-60-bcl-2 cells. Nature of the assay: Northern blot of APE mRNA after differentiation induction. As to conditions: 10^-5 M RA, 1.25% DMSO or 100 nM PMA. How it is done:
as §1, §2

For assay [3], the system named is HL-60 cells. The experiment in a line: Northern blot of APE transcript after differentiation induction. The procedure: (§3) FIG. 6A and FIG. 6B: Expression of APE in HL-60 cells. FIG. 6A, HL-60 cells at 0, 2, 4, and 6 days after treatment with 10^−5 M RA or 1.25% DMSO, Western blot (top) probed with an affinity purified polyclonal rabbit anti-APE antibody which detects the 37,000 Daltons human APE. Northern blots (middle and bottom) probed for the 1.6 Kb APE mRNA and GAPDH transcripts. FIG. 6B, HL-60 cells treated with 100 nM PMA.
To investigate possible changes in expression of the DNA repair enzyme APE in differenntiating myeloid cells, the inventor utilized Northern and Western blot analysis with the HL-60 myeloid leukemia cell line, which can be induced to terminally differentiate into mature granulocytes or monocyte/macrophage (Collins, 1987). […] To determine whether the decrease in APE expression was confined to granulocytic differentiation, HL-60 cells were induced down the monocyte/macrophage pathway with PMA.

Assay [4] has as its system HL-60 cells. Nature of the assay: Western blot of APE protein expression after differentiation induction. How it is done:
as §3
Western blot analysis was performed as has been previously described (Wilson et al., 1994; 1995, FIG. 16). Whole cell extracts were electrophoresed on a 12% SDS-PAGE and electroblotted onto 0.2 micron nitrocellulose. The filter was incubated in blocking buffer which contains 5% non-fat milk for 1 hour. Next, the antibody (affinity purified APE) was diluted to the appropriate concentration (1:100) and incubated with the filter overnight at 4° C. The filter was washed in 1×TBST and incubated in TBST containing 5% milk and cross-reacting proteins were detected using the Chemiluminescence Western Blotting Kit from Boehringer-Mannheim (Indianapolis, Ind.) as directed. Western blot analysis of HeLa cell (human) or NIH3T3 (mouse) cells using antibody produced in rabbits or chickens are shown in FIG. 16. The antibodies were affinity purified and only a single cross-reacting protein is visible in the human or mouse cells. […]

For assay [5], the system named is HL-60 cells. Nature of the assay: APE expression on cytospun cells, rhodamine-labeled anti-APE staining. As to conditions: for % rhodamine positive (APE): HL-60 + DMSO. The procedure: (§4) To determine if the cells undergoing apoptosis were also the cells downregulating APE, double labeling experiments were performed on a 50:50 mix of untreated and RA treated (6 days, 10^−5 M) HL-60 cells (FIG. 9A). Cytocentrifuge preparations were stained for 1) fragmented DNA using fluorescein-dUTP in the TUNEL assay (FIG. 9C) and 2) APE using polyclonal rabbit anti-APE with a rhodamine labeled goat anti-rabbit secondary antibody (FIG. 9B). Cells undergoing apoptosis fluoresce ‘green’ and cells expressing APE fluoresce ‘red’. […] Conversely, TUNEL negative cells, not undergoing apoptosis, stained strongly positive for APE. Thus, HL-60 cells undergoing apoptosis appear to lose expression of APE.
(§5) The inventor further characterized the temporal decline in APE expression to see if it was an early event in programmed cell death or if the decline coincided with fragmentation of DNA (TUNEL assay); the inventor assayed APE expression and DNA fragmentation on cytospun preparations of cells after exposure to DMSO. The expression of APE started to fall with fewer rhodamine positive cells after 2 days of DMSO while statistically significant evidence of fragmented DNA was not apparent until after 4-6 days (Table 7, FIG. 8). A similar pattern was observed, but not as rapid a loss of APE expression, after exposure to RA or PMA. Thus the decrease in APE expression associated with programmed cell death appears to be an early event occurring before the final pathologic consequences of DNA fragmentation in apoptosis.

Assay [6] deals with HL-60 cells. Nature of the assay: DNA fragmentation / apoptosis, fluorescein TUNEL assay. As to conditions: for % fluorescein positive (TUNEL): HL-60 + DMSO.
Text: Over-expression of bcl-2 depresses the baseline apoptosis to less than 1% (FIG. 8). […] The high level expression of bcl-2 in HL-60-bcl-2 cells appears to be responsible for not only the block in apoptosis (Park et al., 1994), but also the failure to downregulate expression of APE with induction of differentiation. […] This leads to the conclusion that the decrease in expression of APE observed on Northern and Western blot (FIG. 6) in induced HL-60 cells is associated with programmed cell death.
as §4, §5

Assay [7] relates to HL-60 cells. The experiment in a line: RA-induced differentiation (morphology, CD11b, NBT reduction).
Assay [8] concerns HL-60-bcl-2 cells. The description is as above.
In assay [9] the test system is HL-60-bcl-2 cells. Nature of the assay: Viability of RA-induced granulocytes (trypan blue dye exclusion). As to conditions: HL-60+Lbcl2SN cells treated with RA, compared to parental HL-60 cells. How it is done:
FIG. 10A and FIG. 10B: Enhanced viability of HL-60-bcl-2 granulocytes. HL60 and HL-60-bcl-2 cells were induced with RA (1 μmol/L) which was added at day 0. At the indicated days after RA treatment (FIG. 10A), cell number was determined using a hemocytometer chamber and (FIG. 10B) percentage of cell viability was determined by trypan blue dye exclusion. The indicated points represent the mean of triplicate experiments (▴) HL-60 wt; (◯) HL-60 Bcl2.
To determine whether cell differentiation and apoptosis were closely linked processes that could not be separated, the inventor over expressed the proto-oncogene bcl-2 in HL-60 cells to block apoptosis the 1.9 kB cDNA of bcl-2 was subcloned into the retroviral vector LXSN to produce Lbcl2SN. The ecotropic packaging cell line PE501 was transfected and used to transduce the amphotropic packaging cell line PA317. High titer clones of PA317+Lbcl2SN were selected for transduction of HL-60 cells to produce HL-60+Lbcl2SN. Several clones were screened by Northern blot analysis and one clone with high bcl-2 expression was chosen for study. […] These cells were assayed for programmed cell death using the TUNEL reaction to score individual cells and the diphenylamine assay to determine the total amount of DNA undergoing fragmentation. […] Thus myeloid cell differentiation and apoptosis are independent processes that can be separated.

Setting [10] is: after 1 hour of TPA stimulation.
The mark [11] stands for this setting: arbitrary log scale 0 to 200, 18.5 U = doubling.

`CCCCCCCCCCCCCC(=O)O[C@@H]1[C@@H](C)[C@@]2(O)[C@@H](C=C(CO)C[C@]3(O)C(=O)C(C)=C[C@@H]23)[C@@H]2C(C)(C)[C@]12OC(C)=O` [PMA]: the “APE protein expression (Western blot)” value in the assay on HL-60-bcl-2 cells [1] is listed as “continuous expression”; with HL-60 cells [4] (100 nM PMA, after two days exposure), “decreased to a very low level”. Also, in the assay with HL-60-bcl-2 cells [2], the “APE mRNA expression (Northern blot)” value is “continuous expression”. Also, the “APE transcript expression (Northern blot)” value in the assay with HL-60 cells [3] (100 nM PMA) was “Decreased expression”.

As to `C[S+](C)[O-]` [DMSO], the “% rhodamine positive (APE)” value with HL-60 cells [5] (2 days) is 34%; in the assay with HL-60 cells [5] (4 days), 0%. Besides, the “time after which expression of APE started to fall (fewer rhodamine positive cells)” value with HL-60 cells [5] (HL-60, DMSO) was 2 days. The “APE protein expression (Western blot)” value in the assay with HL-60-bcl-2 cells [1] is recorded as “continuous expression”; in the assay on HL-60 cells [4] (10^-5 M RA or 1.25% DMSO, over 6 days, compared to ethanol treated controls), “nearly undectable”. The “% fluorescein positive (TUNEL)” value in the assay on HL-60 cells [6] (2 days) is reported as 2.7%; in the assay with HL-60 cells [6] (4 days), 2.3%; with HL-60 cells [6] (6 days), 7%. Further, in the assay on HL-60 cells [6] (HL-60, DMSO), the “time after which statistically significant evidence of fragmented DNA became apparent” value lay within 4 to 6 days. Further, the “APE mRNA expression (Northern blot)” value in the assay with HL-60-bcl-2 cells [2] is listed as “similarly maintained”. Moreover, in the assay on HL-60 cells [3] (granulocytic induction with 10^-5 M RA or 1.25% DMSO, 0-6 days), the “APE transcript expression (Northern blot)” value was “more rapid decrease to a lower level”.

As for `CC1=C(/C=C/C(C)=C/C=C/C(C)=C/C(=O)O)C(C)(C)CCC1` [RA, Retinoic Acid], the “NBT (+), percentage of cells containing blue-black formazan deposits” value in the assay on HL-60 cells [7] (setting [10]) and in the assay with HL-60-bcl-2 cells [8] (setting [10]) was >90% throughout. For the same molecule, the “CD11b (+), relative mean fluorescence” value in the assay on HL-60 cells [7] (setting [11]) worked out at 105.4 U; in the assay with HL-60-bcl-2 cells [8] (setting [11]) it was 107.9 U. The “survival of mature granulocytes” value with HL-60-bcl-2 cells [9] is listed as “up to 40 days”.
